Laboratory results reported in patent publication US6927208B1, “Cyclosporin with improved activity profile” (Debiopharm S.A., priority 1998, dated 2005).

Columns and labels:
HIV in CEM-SS cell line = assay: protection during infection with HIV of a CEM-SS cell line (measured by the NCI); format: cell-based; details: mean value at a derivative concentration of 2×10^−6 molar, compared with infection in the absence of Cs
Protocol: The protection of this line in the presence of a Cs derivative is compared with the infection of a line cultivated in the absence of Cs (reference control). A mean value is established at a concentration of the derivative of 2×10^−6 molar. This anti-HIV activity was measured by the NCI (National Cancer Institute) in Washington in the USA.

[1] = system: Balb/c mouse spleen cells stimulated with treated CBA mouse spleen cells; assay: mixed lymphocyte reaction (MLR), immunosuppressive activity; format: cell-based, mice; details: 5 days, greater than 1.0 = less active than CsA, >20 = not immunosuppressive
Protocol: Cs is regarded as being immunosuppressive if its activity in the mixed lymphocyte reaction (MLR) is greater than 5%. The reaction (MLR) is described by T. Meo in “Immunological Methods”, L. Lefkovits and […]: 227-239 (1979). Spleen cells (0.5.10^6) originating from Balb/c mice (female, 8 to 10 weeks) are co-incubated for 5 days in the presence of treated spleen cells originating from CBA mice (females, 8 to 10 weeks). These cells were treated with mitomycin C or were irradiated at 2000 rads. […] The IC50 calculated in the MLR test is compared with the IC50 corresponding to CsA in a parallel experiment.

cyclophilin A = cyclophilin A (Homo sapiens, UniProt P62937); assay: competitive ELISA test, affinity of Cs derivatives for cyclophilin A; format: binding; details: 1.0 = binds as well as CsA, lower than 1.0 = binds better
Chain of cyclophilin A (P62937 whole entry, species assumed): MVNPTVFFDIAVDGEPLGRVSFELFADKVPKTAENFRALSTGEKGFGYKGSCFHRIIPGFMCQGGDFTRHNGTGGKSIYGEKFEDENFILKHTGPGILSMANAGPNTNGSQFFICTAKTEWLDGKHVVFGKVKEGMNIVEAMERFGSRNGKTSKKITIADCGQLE
Protocol: The results of Table 1 show the affinity of the derivatives of Cs for cyclophilin A in a competitive ELISA test described by Quesniaux in Eur. J. Immunology 1987, 17, 1359-1365. In this test, during incubation with cyclophilin, Cs bound to BSA (serum albumin) is added to the Cs to be tested. The concentration required to obtain 50% inhibition (IC50) of the reference reaction in the absence of competitor is then calculated. The results are expressed by the binding index BI which is the ratio of the IC50 of the derivative and the IC50 of CsA.

Compound | Percentage HIV Protection (HIV in CEM-SS cell line) | IR (ratio of the IC50 of the MLR test of the derivative over the IC50 of cyclosporin A) [1] | BI (binding index: ratio of the IC50 of the derivative and the IC50 of CsA) (cyclophilin A)
C/C=C/C[C@@H](C)[C@@H](O)[C@H]1C(=O)N[C@@H](CC)C(=O)N(C)CC(=O)N(C)[C@@H]([C@@H](C)CC)C(=O)N[C@@H](C(C)C)C(=O)N(C)[C@@H](CC(C)C)C(=O)N[C@@H](C)C(=O)N[C@H](C)C(=O)N(C)[C@@H](CC(C)C)C(=O)N(C)[C@@H](CC(C)C)C(=O)N(C)[C@@H](C(C)C)C(=O)N1C [UNIL 007, MeIle^4-Cs] | 68.5 | >200 | 0.5
EtIle4-Cs [UNIL 013] |  | >200 | 1.3
EtPhe(4-CH2PO(OMe)2)-Cs [UNIL 014] |  | >200 | 0.5
EtVal^4-Cs [UNIL 004] | 74.9 | >200 | 1.0
MeVal^4-Cs [UNIL 002] | 66.4 | >200 | 0.6
cyclosporin A [UNIL 001] |  | 1.0 | 1.0
